# Experimental data reported in PubChem BioAssay AID1745844 (Carcinogenic Potency Database (CPDB), 2022).
# The source made the active and inactive calls. No rule for the calls is given here.
# Test system: rodent lifetime carcinogenesis bioassay, tumor incidence TD50
# Assay: carcinogenic potency in animals, long-term in vivo studies, CPDB compilation (AID 1745844)
# [1] = rat, strain Sprague-Dawley, both sexes, in drinking water, site: any site (literature study), lesion: malignant tumor, dosed 104 weeks, study length 104 weeks
smiles,measurement,setting,value
C[C@@H]1CCCCN1N=O,TD50,[1],20.4 mg/kg/day
same,TD50,"rat, strain Sprague-Dawley, both sexes, in drinking water, site: liver, lesion: hepatocellular adenoma, dosed 104 weeks, study length 104 weeks",108 mg/kg/day
same,TD50,"rat, strain Sprague-Dawley, both sexes, in drinking water, site: n. olfactorius, lesion: ependymoblastoma, dosed 104 weeks, study length 104 weeks",22.1 mg/kg/day
CC(=O)CNCC(O)C(O)N=O (centres undefined),TD50,"hamster, strain Syrian Golden, females, by gavage, site: forestomach, lesion: several types, types named in the paper, dosed 35 weeks, study length 55 weeks",0.754 mg/kg/day
same,TD50,"hamster, strain Syrian Golden, females, by gavage, site: forestomach, lesion: squamous-cell papilloma, dosed 35 weeks, study length 55 weeks",0.868 mg/kg/day
same,TD50,"hamster, strain Syrian Golden, females, by gavage, site: liver, lesion: hepatocellular adenoma, dosed 35 weeks, study length 55 weeks",9.92 mg/kg/day
same,TD50,"hamster, strain Syrian Golden, females, by gavage, site: liver, lesion: hepatocellular carcinoma, dosed 35 weeks, study length 55 weeks",20.4 mg/kg/day
same,TD50,"hamster, strain Syrian Golden, females, by gavage, site: liver, lesion: several types, types named in the paper, dosed 35 weeks, study length 55 weeks",9.92 mg/kg/day
same,TD50,"hamster, strain Syrian Golden, females, by gavage, site: lung, lesion: carcinoma, dosed 35 weeks, study length 55 weeks",20.4 mg/kg/day
same,TD50,"hamster, strain Syrian Golden, females, by gavage, site: pancreatic duct, lesion: several types, types named in the paper, dosed 35 weeks, study length 55 weeks",3.63 mg/kg/day
same,TD50,"rat, strain Fischer 344, females, in drinking water, site: esophagus, lesion: carcinoma, dosed 31 weeks, study length 55 weeks",0.0637 mg/kg/day
same,TD50,"rat, strain Fischer 344, females, in drinking water, site: esophagus, lesion: several types, types named in the paper, dosed 31 weeks, study length 55 weeks",0.0352 mg/kg/day
same,TD50,"rat, strain Fischer 344, females, in drinking water, site: forestomach, lesion: carcinoma, dosed 31 weeks, study length 55 weeks",0.155 mg/kg/day
same,TD50,"rat, strain Fischer 344, females, in drinking water, site: forestomach, lesion: several types, types named in the paper, dosed 31 weeks, study length 55 weeks",0.0482 mg/kg/day
same,TD50,"rat, strain Fischer 344, females, in drinking water, site: liver, lesion: hepatocellular carcinoma, dosed 31 weeks, study length 55 weeks",1.3 mg/kg/day (inactive)
same,TD50,"rat, strain Fischer 344, females, in drinking water, site: tongue, lesion: carcinoma, dosed 31 weeks, study length 55 weeks",0.0964 mg/kg/day
same,TD50,"rat, strain Fischer 344, females, in drinking water, site: tongue, lesion: several types, types named in the paper, dosed 31 weeks, study length 55 weeks",0.0555 mg/kg/day
NC(=O)NN=Cc1ccc([N+](=O)[O-])o1,TD50,"mouse, strain B6C3F1, females, in feed, site: any site (literature study), lesion: several types, types named in the paper, dosed 103 weeks, study length 104 weeks",66.2 mg/kg/day
same,TD50,"mouse, strain B6C3F1, females, in feed, site: lung, lesion: alveolar/bronchiolar adenoma + alveolar/bronchiolar carcinoma, dosed 103 weeks, study length 104 weeks",241 mg/kg/day
same,TD50,"mouse, strain B6C3F1, females, in feed, site: ovary, lesion: granulosa-cell tumor + mixed tumor, benign, dosed 103 weeks, study length 104 weeks",22.4 mg/kg/day
same,TD50,"mouse, strain B6C3F1, females, in feed, site: ovary, lesion: granulosa-cell tumor, dosed 103 weeks, study length 104 weeks",124 mg/kg/day
same,TD50,"mouse, strain B6C3F1, females, in feed, site: ovary, lesion: mixed tumor, benign + tubular adenoma, dosed 103 weeks, study length 104 weeks",29.8 mg/kg/day
same,TD50,"mouse, strain B6C3F1, females, in feed, site: ovary, lesion: mixed tumor, benign, dosed 103 weeks, study length 104 weeks",30.8 mg/kg/day
same,TD50,"mouse, strain B6C3F1, males, in feed, site: any site (literature study), lesion: several types, types named in the paper, dosed 103 weeks, study length 104 weeks",89.3 mg/kg/day
same,TD50,"mouse, strain B6C3F1, males, in feed, site: liver, lesion: hepatocellular adenoma + hepatocellular carcinoma + neoplastic nodule, dosed 103 weeks, study length 104 weeks",152 mg/kg/day
same,TD50,"mouse, strain B6C3F1, males, in feed, site: lung, lesion: alveolar/bronchiolar adenoma + alveolar/bronchiolar carcinoma, dosed 103 weeks, study length 104 weeks",1380 mg/kg/day
same,TD50,"mouse, strain B6C3F1, males, in feed, site: subcutaneous tissue, lesion: fibrosarcoma + fibroma + neurofibrosarcoma + sarcoma, NOS, dosed 103 weeks, study length 104 weeks",154 mg/kg/day (inactive)
same,TD50,"rat, strain Fischer 344, females, in feed, site: liver, lesion: hepatocellular adenoma + hepatocellular carcinoma + neoplastic nodule, dosed 103 weeks, study length 104 weeks",253 mg/kg/day
same,TD50,"rat, strain Fischer 344, females, in feed, site: mammary gland, lesion: fibroadenoma, dosed 103 weeks, study length 104 weeks",15.7 mg/kg/day
same,TD50,"rat, strain Fischer 344, males, in feed, site: any site (literature study), lesion: several types, types named in the paper, dosed 103 weeks, study length 104 weeks",33.8 mg/kg/day
same,TD50,"rat, strain Fischer 344, males, in feed, site: preputial gland, lesion: carcinoma, NOS, dosed 103 weeks, study length 104 weeks",65.5 mg/kg/day
same,TD50,"rat, strain Fischer 344, males, in feed, site: skin, lesion: sebaceous adenoma + trichoepithelioma, dosed 103 weeks, study length 104 weeks",151 mg/kg/day
same,TD50,"rat, strain Fischer 344, males, in feed, site: skin, lesion: sebaceous adenoma, dosed 103 weeks, study length 104 weeks",177 mg/kg/day
same,TD50,"rat, strain Fischer 344, males, in feed, site: tunica vaginalis, lesion: mesothelioma, NOS + mesothelioma, malignant, dosed 103 weeks, study length 104 weeks",44 mg/kg/day
same,TD50,"rat, strain Holtzman albino (Sprague-Dawley derived), females, in feed, site: mammary gland, lesion: fibroadenoma, dosed 36 weeks, study length 54 weeks",6.52 mg/kg/day
same,carcinogen call,"rat, strain Holtzman albino (Sprague-Dawley derived), females, in feed, site: mammary tissue, wider than the gland, lesion: one or several types, types not named, dosed 44 weeks, study length 60 weeks",positive
same,TD50,"rat, strain Sprague-Dawley, females, in feed, site: mammary tissue, wider than the gland, lesion: one or several types, types not named, dosed 46 weeks, study length 66 weeks",7.12 mg/kg/day
CC(/C=C/C=C(\C)C(=O)O[C@@H]1O[C@H](CO[C@@H]2O[C@H](CO)[C@@H](O)[C@H](O)[C@H]2O)[C@@H](O)[C@H](O)[C@H]1O)=C\C=C\C=C(C)\C=C\C=C(/C)C(=O)O[C@@H]1O[C@H](CO[C@@H]2O[C@H](CO)[C@@H](O)[C@H](O)[C@H]2O)[C@@H](O)[C@H](O)[C@H]1O,carcinogen call,"mouse, strain C57BL/6N, females, in drinking water, site: liver, lesion: hepatoma, dosed 95 weeks, study length 95 weeks",negative (inactive)
same,carcinogen call,"mouse, strain C57BL/6N, females, in drinking water, site: lung, lesion: one or several types, types not named, dosed 95 weeks, study length 95 weeks",negative (inactive)
same,carcinogen call,"mouse, strain C57BL/6N, males, in drinking water, site: liver, lesion: hepatoma, dosed 95 weeks, study length 95 weeks",negative (inactive)
same,carcinogen call,"mouse, strain C57BL/6N, males, in drinking water, site: lung, lesion: one or several types, types not named, dosed 95 weeks, study length 95 weeks",negative (inactive)
C[C@H]1CCCCN1N=O,TD50,[1],13.2 mg/kg/day
same,TD50,"rat, strain Sprague-Dawley, both sexes, in drinking water, site: liver, lesion: liver-cell carcinoma, dosed 104 weeks, study length 104 weeks",61.2 mg/kg/day
same,TD50,"rat, strain Sprague-Dawley, both sexes, in drinking water, site: liver, lesion: several types, types named in the paper, dosed 104 weeks, study length 104 weeks",49.4 mg/kg/day
same,TD50,"rat, strain Sprague-Dawley, both sexes, in drinking water, site: several sites, sites named in the paper, lesion: ependymoblastoma, dosed 104 weeks, study length 104 weeks",34.5 mg/kg/day
CC1=C[C@H]2[C@@]3(O)[C@H](C)[C@@H](O)[C@]4(O)[C@H]([C@@H]3C=C(CO)C[C@]2(O)C1=O)C4(C)C,carcinogen call,"mouse, strain AKR/J, females, i.p., site: lymphoreticular system, lesion: lymphatic leukemia, dosed 104 weeks, study length 104 weeks",negative (inactive)
same,TD50,"mouse, strain AKR/J, males, i.p., site: lymphoreticular system, lesion: lymphatic leukemia, dosed 104 weeks, study length 104 weeks",8.26 mg/kg/day (inactive)
same,carcinogen call,"mouse, strain BALB/c, females, i.p., site: lymphoreticular system, lesion: one or several types, types not named, dosed 104 weeks, study length 104 weeks",negative (inactive)
same,carcinogen call,"mouse, strain BALB/c, males, i.p., site: lymphoreticular system, lesion: one or several types, types not named, dosed 104 weeks, study length 104 weeks",negative (inactive)
same,carcinogen call,"mouse, strain C3HeB, females, i.p., site: lymphoreticular system, lesion: one or several types, types not named, dosed 104 weeks, study length 104 weeks",negative (inactive)
same,carcinogen call,"mouse, strain C3HeB, males, i.p., site: lymphoreticular system, lesion: one or several types, types not named, dosed 104 weeks, study length 104 weeks",negative (inactive)
same,carcinogen call,"mouse, strain C57BL, females, i.p., site: lymphoreticular system, lesion: one or several types, types not named, dosed 104 weeks, study length 104 weeks",negative (inactive)
same,TD50,"mouse, strain SJL/J, females, i.p., site: lymphoreticular system, lesion: reticulum-cell sarcoma, type B, dosed 104 weeks, study length 104 weeks",92.6 mg/kg/day
same,TD50,"mouse, strain SWR, females, i.p., site: lymphoreticular system, lesion: lymphatic leukemia, dosed 104 weeks, study length 104 weeks",2.21 mg/kg/day
